Earlier results, collected in US9387185B2, “N-ω-hydroxy-L-arginine derivatives for the treatment of diseases” (Christian-Albrechts-Universität Zu Kiel, priority 2009, dated 2016).

Experiments:
rats = conditions: i.v.
arginase I = target: T1, arginase I (Homo sapiens, UniProt P05089)
T1 sequence (P05089 1-322): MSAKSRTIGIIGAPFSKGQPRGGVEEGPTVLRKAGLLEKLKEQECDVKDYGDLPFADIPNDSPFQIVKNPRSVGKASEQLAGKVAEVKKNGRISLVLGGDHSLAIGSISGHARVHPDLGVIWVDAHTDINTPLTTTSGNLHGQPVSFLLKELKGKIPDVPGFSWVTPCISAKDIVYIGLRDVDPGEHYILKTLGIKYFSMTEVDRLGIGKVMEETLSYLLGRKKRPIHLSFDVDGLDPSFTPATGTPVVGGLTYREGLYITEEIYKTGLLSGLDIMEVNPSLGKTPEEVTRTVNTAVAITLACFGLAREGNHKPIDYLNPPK

In the case of N=C(NO)NCCC[C@H](N)C(=O)O [NOHA, N^ω-hydroxy-L-arginine], the “effects for treating the erectile dysfunction, endothelial dysfunction and hypertension” value (rats) is given as “desired effects for treating the erectile dysfunction, endothelial dysfunction and hypertension could already be demonstrated” and the Ki (arginase I) is given as 30 to 42 µM.
